The source of these data is PMC6896158, “Enzymatic Characterization of Wild-Type and Mutant Janus Kinase 1” (Cancers, 2019).

Read-outs that look alike come from different tables or passages of the source.

In general, Km refers to the substrate concentration at which the rate is half of its maximum. What is called Ki is the equilibrium dissociation constant of an inhibitor or competing ligand from its target. A higher Ki goes with lower affinity. The Kd is the free concentration of one partner at which half of the binding sites on the other are occupied at equilibrium, for simple one-to-one binding.

One assay addresses T1, JAK1 (Homo sapiens, UniProt P23458).
T1 construct: full length, 25-1154; His tag (TEV-cleavable) (N, cleaved yes); made in house; host or cells: Sf21 insect cells (baculovirus)
The assay can be described thus: Steady-state kinetics, kinase activity assay (KM for ATP and STAT5b peptide). The class given is biochemical. As to conditions: 6 mM peptide substrate, read-out: KM, app (ATP).

A further assay has as its target JAK1 constructs (Homo sapiens, UniProt P23458). The assay can be described thus: Thermal shift assay (SYPRO orange). As to conditions: all constructs containing a kinase domain. The class given is binding. Here is the method: To determine whether the V658F mutation affects protein stability we performed thermal shift assays on all the JAK constructs in the presence and absence of various cofactors that bind the kinase domain. SYPRO orange, which fluoresces when bound to hydrophobic residues, was added to a solution of protein and ligand. Fluorescence was measured as the temperature of the solution was increased, with increased fluorescence indicating the unfolding of the protein. The melting temperature (Tm) is represented by the inflection point of the fluorescence curve, with a higher Tm indicating greater thermal stability.
JAKs of 3–5 µg were diluted into the JAK Gel Filtration Buffer with 0.04× SYPRO orange, 4% (v/v) DMSO plus either 20 mM EDTA, 1 mM ATP and 2 mM MgCl2, or 6 µM itacitinib, and with or without 5 µM receptor peptide. The temperature was raised in 1 °C per min steps from 25 °C to 80 °C and fluorescence readings at 530 nm were taken at each interval. Sigmoidal curves were fitted to the fluorescence data to provide Tm values for each experiment.

Assay [1] deals with JAK1 (wild type constructs) (Homo sapiens, UniProt P23458). The assay can be described thus: Kinase assay with titration of itacitinib (γ-32P-ATP, STAT5b peptide). The class given is biochemical. As to conditions: all wild type constructs (kinase domain, pseudokinase-kinase, full length); Ki=IC50/(1+S/KM). Here is the method:
(§1) To our knowledge, it is unknown whether small-molecule JAK inhibitors bind the wild-type and mutant forms of the enzyme with equal affinity. Therefore, the inhibition constant (Ki) for Itacitinib was determined. JAK1 activity was measured by kinase assay in the presence of increasing concentrations of Itacitinib.
(§2) The 10 µL reaction mix contained 0.5 µL 20× Kinase Assay Buffer, 1 µCi γ-^32P-ATP and varying concentrations of ATP, STAT5b peptide, and inhibitor, as described for each experiment. Reactions were started with the addition of 5 µL JAK solution, with concentration as described for each experiment. After incubation at room temperature for 20–60 min, a 3.5 µL reaction mix was spotted onto P81 phosphocellulose paper (Dr. J. Oakhill, SVIMR. Australia) and the paper was placed into 5% (v/v) H3PO4. Paper was washed 4 × 15 min with 100 mL 5% (v/v) H3PO4, followed by 1 × 1 min with acetone. Paper was dried and exposed to a phosphorimager plate overnight. The plate was scanned using a Typhoon FLA 7000 phosphorimager (GE Life Sciences, Chicago, IL, USA) and the incorporated radioactivity of each spot was quantitated using ImageQuant TL software (GE Life Sciences). The background radioactivity, quantified from an area of the paper without reaction mix, was subtracted from that for the experimental spots. […]

A further assay deals with JAK1 V658F (Homo sapiens, UniProt P23458, V658F). Described as above. As to conditions: V658F constructs (pseudokinase-kinase, full length); Ki=IC50/(1+S/KM). The class given is biochemical. Here is the method: as §1, §2
Chain of JAK1 V658F (P23458 25-1154 V658F): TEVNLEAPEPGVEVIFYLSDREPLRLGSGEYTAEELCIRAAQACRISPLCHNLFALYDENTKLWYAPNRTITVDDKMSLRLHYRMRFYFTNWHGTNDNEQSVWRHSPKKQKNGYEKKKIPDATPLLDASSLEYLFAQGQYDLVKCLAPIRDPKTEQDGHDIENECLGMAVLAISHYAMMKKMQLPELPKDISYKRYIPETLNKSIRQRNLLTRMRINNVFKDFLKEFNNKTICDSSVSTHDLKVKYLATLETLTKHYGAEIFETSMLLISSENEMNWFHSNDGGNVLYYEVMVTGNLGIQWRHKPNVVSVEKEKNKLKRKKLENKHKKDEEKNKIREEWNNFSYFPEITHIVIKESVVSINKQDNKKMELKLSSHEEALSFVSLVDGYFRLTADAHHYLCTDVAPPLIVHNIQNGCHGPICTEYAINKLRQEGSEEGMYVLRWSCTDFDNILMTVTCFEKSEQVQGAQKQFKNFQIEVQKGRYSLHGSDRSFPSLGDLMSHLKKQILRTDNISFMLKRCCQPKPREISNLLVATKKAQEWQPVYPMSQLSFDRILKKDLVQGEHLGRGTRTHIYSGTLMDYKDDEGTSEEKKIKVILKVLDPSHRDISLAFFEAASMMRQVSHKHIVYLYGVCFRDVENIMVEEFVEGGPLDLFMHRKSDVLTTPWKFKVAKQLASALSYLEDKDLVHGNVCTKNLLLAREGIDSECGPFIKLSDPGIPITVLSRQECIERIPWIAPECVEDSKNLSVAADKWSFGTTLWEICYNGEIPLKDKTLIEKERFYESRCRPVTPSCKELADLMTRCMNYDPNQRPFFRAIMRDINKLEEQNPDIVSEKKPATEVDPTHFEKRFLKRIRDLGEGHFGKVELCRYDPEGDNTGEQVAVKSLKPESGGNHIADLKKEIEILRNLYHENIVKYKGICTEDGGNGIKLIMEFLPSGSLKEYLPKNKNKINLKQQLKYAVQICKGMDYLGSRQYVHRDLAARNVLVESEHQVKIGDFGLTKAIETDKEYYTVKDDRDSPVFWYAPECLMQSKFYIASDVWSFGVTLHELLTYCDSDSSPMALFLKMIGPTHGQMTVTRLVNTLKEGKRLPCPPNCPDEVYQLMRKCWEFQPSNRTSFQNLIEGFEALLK
A further assay addresses T2, JAK1 FERM-SH2 domain (Homo sapiens, UniProt P23458).
T2 construct: FERM-SH2 domains, 25-559; His tag (TEV-cleavable) (N, cleaved yes); made in house; host or cells: Sf21 insect cells (baculovirus)
The assay can be described thus: Isothermal titration calorimetry of IFNλR Box1/Box2 peptide binding. As to conditions: peptide of IFNλR Box1 and Box2 motifs (human residues K250 - T299). The source says: We considered the possibility that the pseudokinase and kinase domains of JAK may affect the binding of JAK to the cytokine receptor (either directly or allosterically), as well as the possibility that the V658F mutation might exert its oncogenic effect by influencing the interaction of JAK with receptor. […] We performed isothermal titration calorimetry (ITC) to determine the affinity of a peptide representing the IFNλR Box1 and Box2 motifs (human residues K250 - T299). […] However, there was no significant effect on receptor binding between the wild-type and mutant forms of the enzyme.

The next assay deals with JAK1 wild-type and V658F. Kind of assay: Steady-state kinetics in the presence and absence of IFNλR peptide. The class given is biochemical, human. As to conditions: 2 µM IFNλR peptide. Here is the method:
Receptor-binding is an important regulator of the activity of JAK in vivo and may be required in order for the V658F mutation to induce constitutive activity. Although we cannot include full-length receptor constructs in these assays we were able to include a peptide fragment that represents the box1/2 motifs. Therefore, we performed steady-state kinetics using JAK1 wild-type and V658F in the presence and absence of saturating concentrations of the IFNλR peptide.
The 10 µL reaction mix contained 0.5 µL 20× Kinase Assay Buffer, 1 µCi γ-^32P-ATP and varying concentrations of ATP, STAT5b peptide, and inhibitor, as described for each experiment. Reactions were started with the addition of 5 µL JAK solution, with concentration as described for each experiment. After incubation at room temperature for 20–60 min, a 3.5 µL reaction mix was spotted onto P81 phosphocellulose paper (Dr. J. Oakhill, SVIMR. Australia) and the paper was placed into 5% (v/v) H3PO4. […] The plate was scanned using a Typhoon FLA 7000 phosphorimager (GE Life Sciences, Chicago, IL, USA) and the incorporated radioactivity of each spot was quantitated using ImageQuant TL software (GE Life Sciences). The background radioactivity, quantified from an area of the paper without reaction mix, was subtracted from that for the experimental spots.

The target of the next assay is IFNλR (Homo sapiens) (UniProt Q8IU57). As to conditions: cited from earlier work.
Chain of IFNλR (Homo sapiens) (Q8IU57 21-520): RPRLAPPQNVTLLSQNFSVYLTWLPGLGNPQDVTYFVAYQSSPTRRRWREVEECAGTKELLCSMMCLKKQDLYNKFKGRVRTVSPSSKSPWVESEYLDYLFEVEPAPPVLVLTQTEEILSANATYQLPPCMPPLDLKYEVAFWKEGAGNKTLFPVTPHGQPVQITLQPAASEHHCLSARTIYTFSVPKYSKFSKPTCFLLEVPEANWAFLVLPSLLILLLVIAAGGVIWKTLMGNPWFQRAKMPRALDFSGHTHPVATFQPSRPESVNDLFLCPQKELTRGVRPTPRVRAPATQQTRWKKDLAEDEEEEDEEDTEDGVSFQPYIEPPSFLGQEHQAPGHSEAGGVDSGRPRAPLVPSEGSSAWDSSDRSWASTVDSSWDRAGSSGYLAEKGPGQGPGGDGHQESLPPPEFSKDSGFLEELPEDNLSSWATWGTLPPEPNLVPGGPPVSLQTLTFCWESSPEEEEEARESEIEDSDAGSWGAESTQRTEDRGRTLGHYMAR
Assay [2] addresses T3, full length wild type JAK1 (ΔN25) (human, UniProt P23458 25-1154).
T3 construct: human JAK1, the 'full length' construct, residues 25-1154 (the N-terminal residues deleted for expression); The results say the 25 N-terminal residues were deleted, the methods give 25-1154; also called FL WT; JAK1 FL WT; source: Sf21 insect cells, baculovirus, purified (HisTrap, TEV cleavage, Superdex 200); not shown: His tag, N-terminal, cleaved
The assay can be described thus: ITC; IFNλR Box1/Box2 peptide binding to purified JAK1 constructs; three independent experiments; conditions not described in the methods. The conditions noted are these: both partners purified. A general note: Isothermal titration calorimetry measures the heat released or taken up as one component is titrated into another.

Assay [3] deals with T4, full length JAK1 V658F (ΔN25) (human, UniProt P23458 25-1154, V658F).
T4 construct: human JAK1, the 'full length' construct, residues 25-1154, with the cancer-linked mutation V658F in the pseudokinase domain; also called FL V658F; JAK1 FL V658F; source: Sf21 insect cells, baculovirus, purified (HisTrap, TEV cleavage, Superdex 200); not shown: His tag, N-terminal, cleaved
T4 sequence (P23458 25-1154 V658F): as the sequence (P23458 25-1154 V658F) above
The description is as above. The conditions noted are these: both partners purified.

The next assay deals with T5, JAK1 FERM-SH2 domains (human, UniProt P23458 25-559).
T5 construct: human JAK1 FERM-SH2 domains, residues 25-559; source: Sf21 insect cells, baculovirus, purified (HisTrap, TEV cleavage, Superdex 200); not shown: His tag, N-terminal, cleaved
T5 sequence (P23458 25-559): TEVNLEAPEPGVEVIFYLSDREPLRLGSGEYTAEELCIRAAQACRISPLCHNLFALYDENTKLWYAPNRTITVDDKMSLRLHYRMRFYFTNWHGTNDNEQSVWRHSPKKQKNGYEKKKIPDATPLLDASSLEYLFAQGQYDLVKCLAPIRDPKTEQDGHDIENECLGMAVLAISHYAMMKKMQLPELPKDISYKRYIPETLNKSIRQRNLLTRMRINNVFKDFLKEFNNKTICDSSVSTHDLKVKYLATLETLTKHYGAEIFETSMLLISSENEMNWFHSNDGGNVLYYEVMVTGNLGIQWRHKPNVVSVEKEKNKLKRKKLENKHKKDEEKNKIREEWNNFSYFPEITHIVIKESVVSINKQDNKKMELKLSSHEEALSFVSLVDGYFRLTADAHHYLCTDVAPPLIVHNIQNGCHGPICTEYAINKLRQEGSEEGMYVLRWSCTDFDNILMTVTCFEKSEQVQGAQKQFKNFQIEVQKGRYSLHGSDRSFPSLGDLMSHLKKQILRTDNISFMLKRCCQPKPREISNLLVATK
The description is as above. The conditions noted are these: both partners purified.

Chain of JAK1 constructs (P23458 862-1154 limits assumed): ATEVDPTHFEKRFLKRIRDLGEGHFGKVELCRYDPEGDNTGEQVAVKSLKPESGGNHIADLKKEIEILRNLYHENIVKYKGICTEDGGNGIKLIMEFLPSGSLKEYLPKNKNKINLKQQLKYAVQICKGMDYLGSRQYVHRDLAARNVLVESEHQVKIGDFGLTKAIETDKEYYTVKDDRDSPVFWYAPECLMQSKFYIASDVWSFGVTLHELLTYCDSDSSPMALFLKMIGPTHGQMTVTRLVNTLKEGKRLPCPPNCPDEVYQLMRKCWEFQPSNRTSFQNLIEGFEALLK
Chain of JAK1 (wild type constructs) (P23458 862-1154 limits assumed): as above
T3 sequence (P23458 25-1154, stated change not applied): as the sequence (P23458 25-1154 V658F) above, with F634V counted along it
T2 sequence (P23458 25-559): as the sequence (P23458 25-559) above
Chain of JAK1 wild-type and V658F (P23458 25-559 limits assumed, stated change not applied): as the sequence (P23458 25-559) above

For the molecule `Nc1ncnc2c1ncn2[C@@H]1O[C@H](COP(=O)(O)OP(=O)(O)OP(=O)(O)O)[C@@H](O)[C@H]1O` [ATP], the Michaelis-Menten constant (Km) at JAK1 (full-length enzyme) is 25 µM; on JAK1 (kinase domain alone) it was 175 µM. Besides, on JAK1 constructs (1 mM ATP and 2 mM MgCl2, compared to EDTA), the Tm change result is on record as “increased Tm”.

As to `N#CCC1(n2cc(-c3ncnc4[nH]ccc34)cn2)CN(C2CCN(C(=O)c3ccnc(C(F)(F)F)c3F)CC2)C1` [itacitinib], the Ki (in assay [1]; at JAK1 V658F) was 0.5 to 2 nM throughout. Further, at JAK1 constructs (6 µM itacitinib, compared to ATP/Mg2+), the Tm change result is “further Tm increase”.

For the molecule “IFNλR peptide: peptide representing the IFNλR Box1 and Box2 motifs (human residues K250 - T299) (KTLMGNPWFQRAKMPRALDFSGHTHPVATFQPSRPESVNDLFLCPQKELT)”, in the assay with JAK1 FERM-SH2 domain, the “affinity (ITC)” value is recorded as “near-identical affinity to that previously reported”. Further, the “effect on ATP KM or turnover rate” value with JAK1 wild-type and V658F is reported as “no significant differences”.

Take JAK1 FERM-SH2 (from UniProt P23458): the Kd with IFNλR (Homo sapiens) was 71 nM.

B1: peptide representing the IFNλR Box1 and Box2 motifs (human residues K250 - T299) (peptide, UniProt Q8IU57 250-299, looked up)
peptide: KTLMGNPWFQRAKMPRALDFSGHTHPVATFQPSRPESVNDLFLCPQKELT
notes: human interferon-lambda receptor (IFNλR), intracellular Box1 and Box2 motifs, residues K250-T299; also called IFNλR peptide; interferon lambda box1-box2 peptide
Regarding B1, the binding result (in assay [2]; in assay [3]; with JAK1 FERM-SH2 domains) was “binds” in each case.
